ChEMBL document CHEMBL1909046, “DrugMatrix in vitro pharmacology data”

How the values were obtained:
[1] = DRUGMATRIX: Phorbol Ester radioligand binding (ligand: [3H] PDBu); format: cell membranes, Mus musculus, ICR, Brain, Membrane; conditions: Not Active = under 50% inhibition at 10 µM
[2] = target: Kappa-type opioid receptor (Homo sapiens, UniProt P41145); assay: DRUGMATRIX: Opiate kappa (OP2, KOP) radioligand binding (ligand: [3H] Diprenorphine); format: cell membranes, HEK293, Membrane; conditions: hek293; Not Active = under 50% inhibition at 10 µM
Kappa-type opioid receptor, sequence (P41145 whole entry): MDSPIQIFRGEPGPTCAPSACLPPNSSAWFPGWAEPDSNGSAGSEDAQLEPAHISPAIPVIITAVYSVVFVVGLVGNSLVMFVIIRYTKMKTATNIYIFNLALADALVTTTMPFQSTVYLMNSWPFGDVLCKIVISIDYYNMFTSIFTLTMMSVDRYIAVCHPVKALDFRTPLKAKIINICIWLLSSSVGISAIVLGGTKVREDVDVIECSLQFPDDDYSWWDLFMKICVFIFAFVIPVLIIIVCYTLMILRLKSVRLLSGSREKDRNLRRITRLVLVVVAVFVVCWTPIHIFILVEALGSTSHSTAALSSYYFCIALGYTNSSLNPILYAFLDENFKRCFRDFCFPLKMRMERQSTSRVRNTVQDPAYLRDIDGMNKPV

[3] = DRUGMATRIX: GABAA, Flunitrazepam, Central radioligand binding (ligand: [3H] Flunitrazepam); format: cell membranes, Rattus norvegicus, Wistar, Brain, Membrane; conditions: Not Active = under 50% inhibition at 10 µM
[4] = DRUGMATRIX: ATPase, Na+/K+ enzyme inhibition (substrate: ATP); format: tissue-based, Sus scrofa, Heart; conditions: Not Active = under 50% inhibition at 10 µM
[5] = target: T1, Type-2 angiotensin II receptor (Homo sapiens, UniProt P50052); format: cell-based; conditions: cho-k1; note: in other assays of this panel Not Active means under 50% inhibition at 10 µM
T1 sequence (P50052 whole entry): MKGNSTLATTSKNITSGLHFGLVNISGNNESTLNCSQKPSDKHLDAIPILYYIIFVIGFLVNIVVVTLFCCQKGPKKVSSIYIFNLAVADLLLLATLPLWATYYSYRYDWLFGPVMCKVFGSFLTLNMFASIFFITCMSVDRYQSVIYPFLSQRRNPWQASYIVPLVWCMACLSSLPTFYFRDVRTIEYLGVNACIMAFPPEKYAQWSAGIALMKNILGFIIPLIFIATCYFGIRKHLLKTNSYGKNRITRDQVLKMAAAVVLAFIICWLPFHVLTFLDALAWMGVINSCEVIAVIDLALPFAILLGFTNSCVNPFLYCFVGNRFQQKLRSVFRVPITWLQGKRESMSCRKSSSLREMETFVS

[6] = target: T2, Calcitonin receptor (Homo sapiens, UniProt P30988); format: cell membranes, Membrane; conditions: t47d; note: in other assays of this panel Not Active means under 50% inhibition at 10 µM
T2 sequence (P30988 whole entry): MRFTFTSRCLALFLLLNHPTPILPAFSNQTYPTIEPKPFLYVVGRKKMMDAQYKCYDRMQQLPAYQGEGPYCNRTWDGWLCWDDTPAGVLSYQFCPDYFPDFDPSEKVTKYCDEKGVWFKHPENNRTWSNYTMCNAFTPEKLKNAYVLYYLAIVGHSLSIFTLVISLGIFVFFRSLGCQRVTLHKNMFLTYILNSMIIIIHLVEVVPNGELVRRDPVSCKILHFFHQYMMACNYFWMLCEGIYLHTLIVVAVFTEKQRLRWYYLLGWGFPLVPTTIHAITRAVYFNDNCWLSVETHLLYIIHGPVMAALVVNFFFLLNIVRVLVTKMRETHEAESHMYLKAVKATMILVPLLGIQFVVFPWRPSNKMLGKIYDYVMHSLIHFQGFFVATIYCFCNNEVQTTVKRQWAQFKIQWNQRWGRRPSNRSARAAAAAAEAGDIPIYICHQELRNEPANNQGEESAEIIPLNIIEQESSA

[7] = target: Vascular endothelial growth factor receptor 1 (Homo sapiens, UniProt P17948); format: cell-based; conditions: huvec; note: in other assays of this panel Not Active means under 50% inhibition at 10 µM
Vascular endothelial growth factor receptor 1, sequence (P17948 whole entry): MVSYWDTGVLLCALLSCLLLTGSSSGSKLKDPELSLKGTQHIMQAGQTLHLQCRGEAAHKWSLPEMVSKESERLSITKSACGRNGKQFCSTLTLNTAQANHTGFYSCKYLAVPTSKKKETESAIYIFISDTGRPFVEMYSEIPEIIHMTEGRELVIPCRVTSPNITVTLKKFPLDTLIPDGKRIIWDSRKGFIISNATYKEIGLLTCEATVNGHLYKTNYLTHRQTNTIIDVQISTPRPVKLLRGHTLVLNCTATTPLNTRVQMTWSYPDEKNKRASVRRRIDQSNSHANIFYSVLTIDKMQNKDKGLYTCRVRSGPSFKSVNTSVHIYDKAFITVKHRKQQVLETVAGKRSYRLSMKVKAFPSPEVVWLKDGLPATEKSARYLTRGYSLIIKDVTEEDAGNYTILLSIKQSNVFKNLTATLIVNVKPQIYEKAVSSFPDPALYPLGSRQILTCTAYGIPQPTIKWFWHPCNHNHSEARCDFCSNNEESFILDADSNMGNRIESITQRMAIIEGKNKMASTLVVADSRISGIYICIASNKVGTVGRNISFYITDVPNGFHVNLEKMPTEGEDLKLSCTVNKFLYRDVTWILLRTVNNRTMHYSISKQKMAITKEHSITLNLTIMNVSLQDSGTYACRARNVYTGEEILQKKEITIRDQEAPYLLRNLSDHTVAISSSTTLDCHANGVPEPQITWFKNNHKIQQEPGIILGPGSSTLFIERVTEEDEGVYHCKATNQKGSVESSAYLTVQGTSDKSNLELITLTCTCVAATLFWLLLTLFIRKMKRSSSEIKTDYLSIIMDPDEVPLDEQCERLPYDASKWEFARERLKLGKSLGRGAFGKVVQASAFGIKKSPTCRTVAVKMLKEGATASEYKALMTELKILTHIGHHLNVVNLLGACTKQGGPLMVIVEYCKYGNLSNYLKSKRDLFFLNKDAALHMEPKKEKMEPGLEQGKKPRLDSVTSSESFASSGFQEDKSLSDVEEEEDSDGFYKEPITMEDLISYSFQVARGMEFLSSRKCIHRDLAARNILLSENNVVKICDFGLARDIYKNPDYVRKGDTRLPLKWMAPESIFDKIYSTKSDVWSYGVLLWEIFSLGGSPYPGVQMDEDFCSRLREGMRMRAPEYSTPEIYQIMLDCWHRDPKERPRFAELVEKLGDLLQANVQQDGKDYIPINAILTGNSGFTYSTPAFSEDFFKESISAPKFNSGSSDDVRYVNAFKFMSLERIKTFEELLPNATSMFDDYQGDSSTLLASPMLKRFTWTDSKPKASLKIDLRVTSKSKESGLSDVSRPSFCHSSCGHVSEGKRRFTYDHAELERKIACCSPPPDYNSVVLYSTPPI

[8] = target: T3, Caspase-1 (Homo sapiens, UniProt P29466); set-up: species or system Escherichia coli;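 note: Caspase-1 enzyme inhibition assay with a peptide substrate; in other assays of this panel Not Active means under 50% inhibition at 10 µM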
T3 sequence (P29466 whole entry): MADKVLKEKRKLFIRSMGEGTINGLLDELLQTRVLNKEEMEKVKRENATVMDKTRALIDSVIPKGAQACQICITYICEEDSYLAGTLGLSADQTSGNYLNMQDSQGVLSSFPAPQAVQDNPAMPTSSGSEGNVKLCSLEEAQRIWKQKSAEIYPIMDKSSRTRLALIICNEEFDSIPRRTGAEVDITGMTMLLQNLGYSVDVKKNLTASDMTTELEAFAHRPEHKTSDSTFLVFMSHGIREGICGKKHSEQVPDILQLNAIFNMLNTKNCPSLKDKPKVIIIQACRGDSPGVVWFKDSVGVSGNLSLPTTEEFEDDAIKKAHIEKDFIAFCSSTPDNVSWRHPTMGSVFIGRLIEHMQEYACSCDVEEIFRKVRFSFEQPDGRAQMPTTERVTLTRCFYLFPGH

[9] = DRUGMATRIX: Nicotinic Acetylcholine radioligand binding (ligand: [125I] Epibatidine); format: cell membranes, Membrane; conditions: imr-32; Not Active = under 50% inhibition at 10 µM
[10] = target: Cytochrome P450 2C9 (Homo sapiens, UniProt P11712); conditions: bti-tn-5b1-4; note: in other assays of this panel Not Active means under 50% inhibition at 10 µM
Cytochrome P450 2C9, sequence (P11712 whole entry): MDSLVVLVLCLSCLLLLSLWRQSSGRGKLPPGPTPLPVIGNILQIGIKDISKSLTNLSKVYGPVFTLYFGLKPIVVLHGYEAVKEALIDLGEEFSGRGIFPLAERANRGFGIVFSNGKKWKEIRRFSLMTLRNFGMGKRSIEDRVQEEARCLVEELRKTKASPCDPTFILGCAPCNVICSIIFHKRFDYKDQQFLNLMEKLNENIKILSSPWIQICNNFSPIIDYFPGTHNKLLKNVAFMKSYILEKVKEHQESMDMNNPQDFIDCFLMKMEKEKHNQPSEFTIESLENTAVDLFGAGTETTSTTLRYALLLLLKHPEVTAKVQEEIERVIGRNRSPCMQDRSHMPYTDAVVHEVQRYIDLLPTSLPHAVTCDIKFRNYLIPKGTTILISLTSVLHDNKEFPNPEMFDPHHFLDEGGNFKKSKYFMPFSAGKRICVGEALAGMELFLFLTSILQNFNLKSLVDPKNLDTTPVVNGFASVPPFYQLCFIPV

[11] = target: T4, Muscarinic acetylcholine receptor M5 (Homo sapiens, UniProt P08912); format: cell membranes, CHO-K1, Membrane; conditions: cho-k1; note: in other assays of this panel Not Active means under 50% inhibition at 10 µM
T4 sequence (P08912 whole entry): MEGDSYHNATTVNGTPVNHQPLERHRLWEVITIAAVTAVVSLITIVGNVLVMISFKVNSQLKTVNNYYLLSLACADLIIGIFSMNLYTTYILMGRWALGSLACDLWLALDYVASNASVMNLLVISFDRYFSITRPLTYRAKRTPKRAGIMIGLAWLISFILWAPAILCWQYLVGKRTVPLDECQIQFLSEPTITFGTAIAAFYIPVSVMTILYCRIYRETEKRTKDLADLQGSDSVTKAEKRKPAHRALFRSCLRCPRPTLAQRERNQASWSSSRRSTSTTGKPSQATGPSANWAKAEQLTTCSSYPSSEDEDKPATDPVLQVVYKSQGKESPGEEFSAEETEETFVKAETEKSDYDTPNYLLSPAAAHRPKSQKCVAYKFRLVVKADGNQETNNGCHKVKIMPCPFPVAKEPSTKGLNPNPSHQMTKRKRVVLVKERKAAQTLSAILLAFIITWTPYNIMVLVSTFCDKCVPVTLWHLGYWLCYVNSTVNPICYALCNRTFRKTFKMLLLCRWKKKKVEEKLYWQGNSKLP

[12] = target: Matrix metalloproteinase-9 (Homo sapiens, UniProt P14780); format: cell-based
Matrix metalloproteinase-9, sequence (P14780 whole entry): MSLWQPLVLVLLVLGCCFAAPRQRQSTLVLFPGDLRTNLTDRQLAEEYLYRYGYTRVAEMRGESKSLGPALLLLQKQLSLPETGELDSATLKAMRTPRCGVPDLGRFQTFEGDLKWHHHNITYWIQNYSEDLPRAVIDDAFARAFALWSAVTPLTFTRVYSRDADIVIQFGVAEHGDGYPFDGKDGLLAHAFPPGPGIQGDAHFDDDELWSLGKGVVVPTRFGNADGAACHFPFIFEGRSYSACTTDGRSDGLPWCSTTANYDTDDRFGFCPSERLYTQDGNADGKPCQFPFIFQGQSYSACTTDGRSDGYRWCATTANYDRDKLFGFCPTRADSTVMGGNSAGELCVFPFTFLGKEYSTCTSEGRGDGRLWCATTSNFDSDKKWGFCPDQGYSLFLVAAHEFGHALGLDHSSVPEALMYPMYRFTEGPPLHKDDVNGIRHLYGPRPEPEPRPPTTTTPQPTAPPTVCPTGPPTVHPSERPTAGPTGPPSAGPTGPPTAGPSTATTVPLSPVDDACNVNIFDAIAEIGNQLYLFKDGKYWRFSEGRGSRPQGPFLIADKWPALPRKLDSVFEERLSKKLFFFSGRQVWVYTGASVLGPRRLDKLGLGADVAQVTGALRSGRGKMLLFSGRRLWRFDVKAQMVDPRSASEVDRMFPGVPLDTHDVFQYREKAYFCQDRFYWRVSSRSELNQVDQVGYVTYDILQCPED

CCc1cccc2c3c([nH]c12)C(CC)(CC(=O)O)OCC3 (configuration not stated) [ETODOLAC]
Not Active: IC50 [1] | Ki [1] | IC50 [2] | IC50 [3] | Ki [3] | IC50 [4] | Ki [4] | IC50 [5] | IC50 [6] | IC50 [7] | IC50 [8] | IC50 [9] | Ki [9] | IC50 [10] | Ki [10] | IC50 [11] | IC50 [12]

Cc1[nH]cnc1CN1CCc2c(c3ccccc3n2C)C1=O [ALOSETRON]
Not Active: IC50 [1] | Ki [1] | IC50 [2] | IC50 [3] | Ki [3] | IC50 [4] | Ki [4] | IC50 [5] | IC50 [6] | IC50 [7] | IC50 [8] | IC50 [9] | Ki [9] | IC50 [10] | Ki [10] | IC50 [11] | IC50 [12]

C/C=C1\[C@H]2C=C(C)C[C@]1(N)c1ccc(=O)[nH]c1C2 [HUPERZINE A]
Not Active: IC50 [1] | Ki [1] | IC50 [2] | IC50 [3] | Ki [3] | IC50 [4] | Ki [4] | IC50 [5] | IC50 [6] | IC50 [7] | IC50 [8] | IC50 [9] | Ki [9] | IC50 [10] | Ki [10] | IC50 [11] | IC50 [12]

O=c1[nH]cc(F)c(=O)[nH]1 [FLUOROURACIL]
Not Active: IC50 [1] | Ki [1] | IC50 [2] | IC50 [3] | Ki [3] | IC50 [4] | Ki [4] | IC50 [5] | IC50 [6] | IC50 [7] | IC50 [8] | IC50 [9] | Ki [9] | IC50 [10] | Ki [10] | IC50 [11] | IC50 [12]

O=C1OC2(c3ccc(O)cc3Oc3cc(O)ccc32)c2ccccc21 [FLUORESCEIN]
Not Active: IC50 [1] | Ki [1] | IC50 [2] | IC50 [3] | Ki [3] | IC50 [4] | Ki [4] | IC50 [5] | IC50 [6] | IC50 [7] | IC50 [8] | IC50 [9] | Ki [9] | IC50 [10] | Ki [10] | IC50 [11] | IC50 [12]

COC1=CC(=O)C[C@@H](C)[C@]12Oc1c(Cl)c(OC)cc(OC)c1C2=O [GRISEOFULVIN]
Not Active: IC50 [1] | Ki [1] | IC50 [2] | IC50 [3] | Ki [3] | IC50 [4] | Ki [4] | IC50 [5] | IC50 [6] | IC50 [7] | IC50 [8] | IC50 [9] | Ki [9] | IC50 [10] | Ki [10] | IC50 [11] | IC50 [12]
